From US6673578B1, “Method for synthesizing DNA” (Takara Shuzo Co., Ltd., priority 1998, dated 2004)

Legend:
Format in all cases: biochemical
[1] = target: T1, TaKaRa Taq DNA polymerase (Thermus aquaticus, UniProt P19821); assay: Effects of acidic substances on TaKaRa Taq DNA polymerase, PCR of 8 kb fragment (Example 5(2)); design: key: ++: Intensive amplification being observed; +: Amplification being observed; ±: Slight amplification being observed; −: No amplification being observed; conditions: 10 U TaKaRa Taq, 100 pg λDNA, 25 μl, 30 cycles 98°C 5 s-68°C 3 min, added 0.25 ng polysaccharide-F, 0.25 ng dextran sulfate or 0.5 μg sodium alginate
T1 construct: purchased Takara Shuzo Co., Ltd
Source text: Using as acidic substances the sulfated-fucose-containing polysaccharide-F obtained by the process described in Item (1) of Example 5, dextran sulfate powder (manufactured by Onco), or sodium alginate (100 to 150 centipoises, manufactured by Wako Pure Chemicals), the effects of these acidic substances on the activity of TaKaRa Taq DNA polymerase (manufactured by Takara Shuzo Co., Ltd.) were examined.
A PCR reagent mixture comprising λDNA as a template, primers λ1 and λ7 as a primer pair and TaKaRa Taq DNA polymerase as a DNA polymerase was prepared, and PCR was carried out. The PCR reagent mixture was prepared so as to have the following composition.
Buffer for TaKaRa Taq DNA polymerase, 10 U of TaKaRa Taq DNA polymerase, 100 pg of λDNA, 0.2 mM each of DATP, dCTP, dGTP and dTTP, and 5 pmol each of primers λ1 and λ7 (final volume being 25 μl). Further, 0.25 ng of the sulfated-fucose-containing polysaccharide-F, 0.25 ng of dextran sulfate powder, or 0.5 μg of sodium alginate were added as acidic substances to the above PCR reagent mixture.
The reaction was carried out in 30 cycles for a total time period of PCR of about 110 minutes, wherein one cycle of reaction comprises a process consisting of 98° C., 5 seconds-68° C., 3 minutes. […]

Polymerase A [2] = assay: Rapid PCR by combination of Polymerase A with acidic substance, about 10 kb fragment (Example 6(1)); design: key: ++: Intensive amplification being observed; +: Amplification being observed; ±: Slight amplification being observed; −: No amplification being observed; conditions: 0.5 μl Polymerase A, 10 pg λDNA, 2.5 μg sodium alginate, 30 cycles 98°C 5 s-68°C 75 s
Procedure: (1) Rapid PCR by Combination of Polymerase A with Acidic Substance Using λDNA as template, a PCR reagent mixture comprising λDNA as a template, primers λ1 and λ8 as a primer pair was prepared, and PCR was carried out. The composition for a PCR reagent mixture is as follows.
50 mM Tris-acetate (pH 8.5), 0.2 mM each of dATP, dCTP, dGTP and dTTP, 3 mM magnesium acetate, 50 mM potassium acetate, 10 pg of λDNA, 0.5 μl of Polymerase A and 10 pmol each of primers λ1 and λ8 (final volume being 25 μl). Further, 2.5 μg of sodium alginate was added to the above PCR reagent mixture. As a control, a PCR reagent mixture without adding sodium alginate was also prepared.
Reaction Conditions: The reaction was carried out in 30 cycles, wherein one cycle of reaction comprises a process consisting of 98° C., 5 seconds-68° C., 75 seconds. The reaction was carried out in fast mode using TaKaRa PCR Thermal Cycler PERSONAL (manufactured by Takara Shuzo Co., Ltd.).
After the termination of reaction, 6 μl each of the resulting sample was electrophoresed on 1% agarose gel containing ethidium bromide in an amount of 0.00005%, thereby confirming an amplified fragment of about 10 kb.

Polymerase B [3] = assay: Rapid PCR by combination of Polymerase B with acidic substance, 12 kb fragment (Example 6(2)); design: key: + to +++: Extent of amplification is shown in 3 grades.; + to +++: Extent of amplification is shown in 3 grades.; + to +++: Extent of amplification is shown in 3 grades; conditions: 0.5 μl Polymerase B, 10 pg λDNA, 25 μl, 30 cycles 98°C 5 s-68°C 3 min, added 0.75 ng polysaccharide-F or 5 μg sodium alginate
Procedure: A PCR reagent mixture comprising λDNA as a template and primers λ1 and λ9 as a primer pair was prepared, and PCR was carried out. The composition for a PCR reagent mixture is as follows.
Buffer for TaKaRa EX Taq DNA polymerase, 0.2 mM each of dATP, dCTP, dGTP and dTTP, 10 pg of λDNA, 0.5 μl of Polymerase B and 5 pmol each of primers λ1 and λ9 (final volume being 25 μl). Further, 0.75 ng of sulfated-fucose-containing polysaccharide-F or 5 μg of sodium alginate was added, respectively, to the above PCR reagent mixture.
The reaction was carried out in 30 cycles, wherein one cycle of reaction comprises a process consisting of 98° C., 5 seconds-68° C., 3 minutes. After the termination of reaction, 5 μl of the resulting sample was electrophoresed on 1% agarose gel containing ethidium bromide in an amount of 0.00005%, thereby confirming an amplified fragment.

λDNA = assay: Effect of amount of DNA polymerase and acidic substance, PCR of 10 kb fragment (Example 7); conditions: sodium alginate 2.5 μg added to Polymerase B; image analyzer FM-BIO
Procedure: A PCR reagent mixture comprising λDNA as a template and primers λ1 and λ8 as a primer pair was prepared, and PCR was carried out. In this PCR, TaKaRa EX Taq DNA polymerase and Polymerase B were used. The composition for a PCR reagent mixture is shown below.
Buffer for TaKaRa EX Taq DNA polymerase, 0.2 mM each of dATP, dCTP, dGTP and dTTP, 10 pg of λDNA, 1.25 U of TaKaRa EX Taq DNA polymerase or 0.5 μl of Polymerase B and 10 pmol each of primers λ1 and λ8 (final volume being 50 μl).
Further, to the above PCR reagent mixture was added 2.5 μg of sodium alginate, to prepare a PCR reagent mixture.
The reaction was carried out in 30 cycles for a total period for PCR of about 80 minutes, wherein one cycle of reaction comprises a process consisting of 98° C., 5 seconds-68° C., 2 minutes. After the termination of reaction, 8 μl of the resulting sample was electrophoresed on 1% agarose gel containing ethidium bromide in an amount of 0.00005%, thereby confirming an amplified fragment.

Polymerase B [4] = assay: Combination of spergualins and acidic substances with Polymerase B, 10 kb fragment of λDNA (Example 8(1)); design: key: + to ++++: Extent of amplification is shown in 4 grades.; + to ++++: Extent of amplification is shown in 4 grades.; + to ++++: Extent of amplification is shown in 4 grades.; + to ++++: Extent of amplification is shown in 4 grades.; −: No amplification being observed; conditions: No 15-deoxyspergualin/2.5 μg sodium alginate, 0.5 μl Polymerase B, 10 pg λDNA, 30 cycles 98°C 5 s-68°C 90 s
Procedure: (1) A PCR reagent mixture comprising λDNA as a template and primers λ1 and λ8 as a primer pair was prepared, and rapid PCR was carried out. In this PCR, Polymerase B was used. As the spergualins, 15-deoxyspergualin trihydrochloride was used, and as the acidic substances, sodium alginate (manufactured by Wako Pure Chemicals) was used. The composition for a PCR reagent mixture is shown below.
50 mM Tris-acetate buffer (pH 8.5), 0.2 mM each of dATP, dCTP, dGTP and dTTP, 3 mM magnesium acetate, 50 mM potassium acetate, 10 pg of λDNA, 10 pmol each of primers λ1 and λ8. To the above PCR reagent mixture was added 0.5 μl of Polymerase B, and further 15-deoxyspergualin trihydrochloride and sodium alginate were added in combination at concentrations shown in Table 10, making up a final volume of 50 μl. In addition, as controls, there were respectively prepared a PCR reagent mixture in which 2.5 μg of sodium alginate was added without adding 15-deoxyspergualin trihydrochloride, and a PCR reagent mixture in which both 15-deoxyspergualin trihydrochloride and sodium alginate were not added.
Rapid PCR was carried out in 30 cycles for a total time period of PCR of about 65.5 minutes, wherein one cycle of reaction comprises a process consisting of 98° C., 5 seconds-68° C., 90 seconds. […]

Polymerase A [5] = assay: Combination of spergualins and acidic substances with Polymerase A, 20 kb fragment of E. coli genomic DNA (Example 8(2)); design: key: ++: Intensive amplification being observed; +: Amplification being observed; ±: Slight amplification being observed; −: No amplification being observed; conditions: No 15-deoxyspergualin/2.5 μg sodium alginate, 0.5 μl Polymerase A, 5 ng E. coli genomic DNA, 30 cycles 98°C 5 s-68°C 3 min
Procedure: (2) The effects of the combination of spergualins and acidic substances on the DNA polymerase were studied in a case where template DNA was E. coli genomic DNA. The composition for a PCR reagent mixture is shown below.
The composition for the PCR reagent mixture was the same as that in Item (1) of Example 8, except for using 5 ng of E. coli genomic DNA (manufactured by Takara Shuzo Co., Ltd.) and 10 pmol each of primers of Eco-1 and Eco-6. To the above PCR reagent mixture was added 0.5 μl of Polymerase A, and further were added in combination 2.5 μg of sodium alginate and 15-deoxyspergualin trihydrochloride so as to have a final concentration of 1 μM, 5 μM or 10 μM, respectively, making up a final volume of 50 μl. In addition, as controls, there were respectively prepared a PCR reagent mixture in which 2.5 μg of sodium alginate was only added without adding 15-deoxyspergualin trihydrochloride, and a PCR reagent mixture in which both 15-deoxyspergualin trihydrochloride and sodium alginate were not added.
Rapid PCR was carried out in 30 cycles for a total time period of PCR of about 110 minutes, wherein one cycle of reaction comprises a process consisting of 98° C., 5 seconds-68° C., 3 minutes. […]

T1 sequence (P19821 whole entry, the tested form may be a part): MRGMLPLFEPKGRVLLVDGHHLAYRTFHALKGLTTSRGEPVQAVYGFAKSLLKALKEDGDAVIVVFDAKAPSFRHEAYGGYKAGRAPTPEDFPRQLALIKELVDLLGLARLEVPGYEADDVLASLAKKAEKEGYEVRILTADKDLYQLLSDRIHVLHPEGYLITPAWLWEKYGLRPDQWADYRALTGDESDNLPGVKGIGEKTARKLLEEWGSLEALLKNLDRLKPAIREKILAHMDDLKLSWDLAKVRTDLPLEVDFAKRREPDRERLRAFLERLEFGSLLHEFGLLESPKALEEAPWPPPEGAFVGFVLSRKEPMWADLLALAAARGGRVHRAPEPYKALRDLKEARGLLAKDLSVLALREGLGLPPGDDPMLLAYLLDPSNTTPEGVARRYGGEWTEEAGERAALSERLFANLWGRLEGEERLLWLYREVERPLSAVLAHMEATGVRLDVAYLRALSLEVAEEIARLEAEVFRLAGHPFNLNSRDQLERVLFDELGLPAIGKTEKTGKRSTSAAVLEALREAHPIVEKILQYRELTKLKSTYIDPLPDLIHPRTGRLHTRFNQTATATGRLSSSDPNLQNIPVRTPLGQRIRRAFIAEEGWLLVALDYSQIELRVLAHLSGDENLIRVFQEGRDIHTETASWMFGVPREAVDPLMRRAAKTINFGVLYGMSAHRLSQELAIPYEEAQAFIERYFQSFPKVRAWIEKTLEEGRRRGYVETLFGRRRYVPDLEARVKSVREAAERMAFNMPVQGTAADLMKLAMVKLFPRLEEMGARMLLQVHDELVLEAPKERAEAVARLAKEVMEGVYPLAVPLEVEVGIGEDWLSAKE

| Substance | Amplification Results [1] | Amplification Results (Polymerase A [2]) | Amplification Results (Polymerase B [3]) | Amount of the amplified product compared to the case where no sodium alginate was added (λDNA) | Amplification Results (Polymerase B [4]) | Amplification Results (Polymerase A [5]) |
| --- | --- | --- | --- | --- | --- | --- |
| dextran sulfate [Dextran Sulfate Powder] | ++ |  |  |  |  |  |
| sodium alginate | ++ | ++ | +++ | about five times | + | ± |
